Data reported in US10703764B2, “Benzopiperazine compositions as BET bromodomain inhibitors” (FORMA Therapeutics, Inc., priority 2013, dated 2020).

Assays:
BRD4 BD1 = molecular target: T1, BRD4 BD1 (Homo sapiens, UniProt O60885); assay: AlphaScreen binding assay, BRD4 Bromodomain 1
T1 construct: made in house
Procedure: (§1) The binding of Example compounds to BRD4 Bromodomain 1 and BRD4 Bromodomain 2 was assessed using 384-well AlphaScreen assay technology. His-epitope tagged BRD4 BD144-168 and BRD4 BD2333-460 were cloned, expressed, and purified to homogeneity. BRD4 BD1 and BRD4 BD2 binding and inhibition was assessed by monitoring the engagement of biotinylated Histone H4 (1-21) K5/8/12/16 tetra-acetylated peptide with the targets using the AlphaScreen technology (PerkinElmer). Specifically, in a 384-well black or white flat bottom plate, BRD4 BD1 (50 nM final) or BRD4 BD2 (100 nM final) was combined with peptide (50 nM final for BD1 or 100 nM final for BD2) in 50 mM HEPES (pH 7.3), 100 mM NaCl, 0.1% (w/v) BSA, and 0.01% (w/v) Triton X-100 either in the presence of DMSO (final 1.25% DMSO) or compound dilution series in DMSO. Alpha streptavidin donor beads and Nickel-chelate acceptor beads were added to a final concentration of 10 μg/ml each. After a minimum of 1 hour equilibration, plates were read on a BMG PHERAstar FS multi-label reader (BMG LabTech). The half maximal inhibitory concentration (IC50) values were calculated using IDBS Activity Base software with a four parameter logistic curve fit by the equation y=A+((B−A)/(1+((C/x)^D))), wherein A denotes the bottom plateau of the curve, B denotes the top plateau of the curve, C denotes the x value at the middle of the curve, D denotes the slope factor, x denotes the original known x values, and y denotes the original known y values. Data was fitted using the Levenburg Marquardt algorithm.

BRD4 BD2 = molecular target: T2, BRD4 BD2 (Homo sapiens, UniProt O60885); assay: AlphaScreen binding assay, BRD4 Bromodomain 2
T2 construct: made in house
Procedure: as §1

| IC50 (BRD4 BD1) [nM] | IC50 (BRD4 BD2) [nM] | Structure (SMILES) |
| --- | --- | --- |
| 1000 to 10000 | 50 to 500 | CC[C@H]1CN(C(=O)c2ccco2)c2cc(-c3ccc(S(C)(=O)=O)cc3)ccc2N1C(C)=O [Example I-6, (S)-1-(2-ethyl-4-(furan-2-carbonyl)-6-(4-(methylsulfonyl)phenyl)-3,4-dihydroquinoxalin-1(2H)-yl)ethan-1-one] |
| > 10000 | > 500 | CC(=O)N1c2ccc(-c3ccc(S(C)(=O)=O)cc3)cc2N(C(=O)c2ccco2)CC1CF (stereo not drawn) [Example I-7, 1-(2-(fluoromethyl)-4-(furan-2-carbonyl)-6-(4-(methylsulfonyl)phenyl)-3,4-dihydroquinoxalin-1(2H)-yl)ethan-1-one] |
| 100 to 1000 | < 50 | CC(=O)N1c2ccc(-c3ccc(S(C)(=O)=O)cc3)cc2N(C(=O)OC2CCC(F)(F)CC2)C[C@@H]1C [Example I-32, (S)-4,4-difluorocyclohexyl 4-acetyl-3-methyl-7-(4-(methylsulfonyl)phenyl)-3,4-dihydroquinoxaline-1(2H)-carboxylate] |
| 1000 to 10000 | > 500 | CC(=O)N1c2ccc(-c3ccc(S(C)(=O)=O)cc3)cc2N(c2ncccn2)C[C@@H]1C [Example I-45, (S)-1-(2-methyl-6-(4-(methylsulfonyl)phenyl)-4-(pyrimidin-2-yl)-3,4-dihydroquinoxalin-1(2H)-yl)ethanone] |
| 1000 to 10000 | < 50 | CC(=O)N1c2ccc(-c3ccc(S(C)(=O)=O)cc3)cc2N(c2ccccn2)C[C@@H]1C [Example I-47, (S)-1-(2-methyl-6-(4-(methylsulfonyl)phenyl)-4-(pyridin-2-yl)-3,4-dihydroquinoxalin-1 (2H)-yl)ethan-1-one] |
| 1000 to 10000 | 50 to 500 | CC(=O)N1c2ccc(-c3ccc(S(C)(=O)=O)cc3)cc2N(c2ncc3ccccc3n2)C[C@@H]1C [Example I-48, (S)-1-(2-methyl-6-(4-(methylsulfonyl)phenyl)-4-(quinazolin-2-yl)-3,4-dihydroquinoxalin-1(2H)-yl)ethanone] |
| 1000 to 10000 | > 500 | CC(=O)N1c2ccc(-c3ccc(S(C)(=O)=O)cc3)cc2N(c2nccc(-c3ccccc3)n2)C[C@@H]1C [Example I-49, (S)-1-(2-methyl-6-(4-(methylsulfonyl)phenyl)-4-(4-phenylpyrimidin-2-yl)-3,4-dihydroquinoxalin-1(2H)-yl)ethanone] |
| 1000 to 10000 | > 500 | CC(=O)N1c2ccc(-c3ccc(S(C)(=O)=O)cc3)cc2N(c2ncc(-c3ccccc3)cn2)C[C@@H]1C [Example I-50, (S)-1-(2-methyl-6-(4-(methylsulfonyl)phenyl)-4-(5-phenylpyrimidin-2-yl)-3,4-dihydroquinoxalin-1(2H)-yl)ethanone] |
| > 10000 | 50 to 500 | CC(=O)N1c2cnc(-c3ccc(S(C)(=O)=O)cc3)cc2N(C(=O)c2ccco2)C[C@@H]1C [Example I-57, (S)-1-(1-(furan-2-carbonyl)-3-methyl-7-(4-(methylsulfonyl)phenyl)-2,3-dihydropyrido[3,4-b]pyrazin-4(1H)-yl)ethanone] |
| 1000 to 10000 | > 500 | CC(=O)N1c2cnc(-c3ccc(S(C)(=O)=O)cc3)cc2N(C(=O)OC(C)C)C[C@@H]1C [Example I-58, isopropyl (S)-4-acetyl-3-methyl-7-(4-(methylsulfonyl)phenyl)-3,4-dihydro pyrido[3,4-b]pyrazine-1 (2H)-carboxylate] |
| 1000 to 10000 | > 500 | CC(=O)N1c2ccc(-c3cnn(C4COC4)c3)cc2N(C(=O)OCC2(C)COC2)C[C@@H]1C [Example I-61, (S)-(3-methyloxetan-3-yl)methyl 4-acetyl-3-methyl-7-(1-(oxetan-3-yl)-1H-pyrazol-4-yl)-3,4-dihydroquinoxaline-1(2H)-carboxylate] |
| 100 to 1000 | 50 to 500 | CC(=O)N1c2ccc(-c3cnn(C4COC4)c3)cc2N(C(=O)OCC(C)(F)F)C[C@@H]1C [Example I-68, (S)-2,2-difluoropropyl 4-acetyl-3-methyl-7-(1-(oxetan-3-yl)-1H-pyrazol-4-yl)-3,4-dihydroquinoxaline-1(2H)-carboxylate] |
| 1000 to 10000 | > 500 | CC(=O)N1c2ccc(-c3cnn(C4COC4)c3)cc2N(C(=O)OC2CC3(COC3)C2)C[C@@H]1C [Example I-70, 2-oxaspiro[3.3]heptan-6-yl (3S)-4-acetyl-3-methyl-7-[1-(oxetan-3-yl)-1H-pyrazol-4-yl]-1,2,3,4-tetrahydroquinoxaline-1-carboxylate] |
| 1000 to 10000 | > 500 | CC(=O)N1c2ccc(-c3cnn(C4COC4)c3)cc2N(C(=O)OCC2CC2(F)F)C[C@@H]1C (stereo partly drawn) [Example I-75, (3S)-(2,2-difluorocyclopropyl)methyl 4-acetyl-3-methyl-7-(1-(oxetan-3-yl)-1H-pyrazol-4-yl)-3,4-dihydroquinoxaline-1(2H)-carboxylate] |
| 1000 to 10000 | 50 to 500 | CC(=O)N1c2ccc(-c3cnn(C4COC4)c3)cc2N(C(=O)OC2(C)CC2)C[C@@H]1C [Example I-76, (S)-1-methylcyclopropyl 4-acetyl-3-methyl-7-(1-(oxetan-3-yl)-1H-pyrazol-4-yl)-3,4-dihydroquinoxaline-1(2H)-carboxylate] |
| > 10000 | > 500 | C[C@H]1CN(C(=O)c2ccco2)c2cc(-c3ccc(S(C)(=O)=O)cc3)ccc2N1S(C)(=O)=O [Example I-96, (S)-furan-2-yl(3-methyl-4-(methylsulfonyl)-7-(4-(methylsulfonyl)phenyl)-3,4-dihydroquinoxalin-1(2H)-yl)methanone] |

Further lines, the compound ahead of its results:

| Structure (SMILES) | IC50 (BRD4 BD1) [nM] | IC50 (BRD4 BD2) [nM] |
| --- | --- | --- |
| CC(=O)N1c2ccc(-c3cnn(C4COC4)c3)cc2N(C(=O)[C@@H]2CC2(Cl)Cl)C[C@@H]1C (single isomer, unassigned) [Example I-112] | 1000 to 10000 | 50 to 500 |
| CC(=O)N1c2ccc(-c3cnn(C4COC4)c3)cc2N(C(=O)[C@H]2CC2(Cl)Cl)C[C@@H]1C (single isomer, unassigned) [Example I-113] | > 10000 | > 500 |
| CC(=O)N1c2ccc(-c3cnn(C4COC4)c3)cc2N(C(=O)C2CCC2)C[C@@H]1C [Example I-11, (S)-1-(4-(cyclobutanecarbonyl)-2-methyl-6-(1-(oxetan-3-yl)-1H-pyrazol-4-yl)-3,4-dihydroquinoxalin-1(2H)-yl)ethanone] | 1000 to 10000 | 50 to 500 |
| CC(=O)N1c2ccc(-c3cnn(-c4nc5ccccc5o4)c3)cc2N(c2nc3ccccc3o2)C[C@@H]1C [Example I-56, (S)-1-(4-(benzo[d]oxazol-2-yl)-6-(1-(benzo[d]oxazol-2-yl)-1H-pyrazol-4-yl)-2-methyl-3,4-dihydroquinoxalin-1(2H)-yl)ethanone] | > 10000 | > 500 |
| CCC1(COC(=O)N2C[C@H](C)N(C(C)=O)c3ccc(-c4cnn(C5COC5)c4)cc32)COC1 [Example I-63, (S)-(3-ethyloxetan-3-yl)methyl 4-acetyl-3-methyl-7-(1-(oxetan-3-yl)-1H-pyrazol-4-yl)-3,4-dihydroquinoxaline-1(2H)-carboxylate] | 1000 to 10000 | 50 to 500 |
| CC(=O)N1c2ccc(-c3cnn(C4COC4)c3)cc2N(C(=O)OCC2COC2)C[C@@H]1C [Example I-64, (S)-oxetan-3-ylmethyl 4-acetyl-3-methyl-7-(1-(oxetan-3-yl)-1H-pyrazol-4-yl)-3,4-dihydroquinoxaline-1(2H)-carboxylate] | 1000 to 10000 | 50 to 500 |
| CC(=O)N1c2ccc(-c3cnn(C4COC4)c3)cc2N(C(=O)OCCC2COC2)C[C@@H]1C [Example I-67, (S)-2-(oxetan-3-yl)ethyl 4-acetyl-3-methyl-7-(1-(oxetan-3-yl)-1H-pyrazol-4-yl)-3,4-dihydroquinoxaline-1(2H)-carboxylate] | > 10000 | > 500 |
| CC(=O)N1c2ccc(-c3cnn(C4COC4)c3)cc2N(C(=O)OCC2CC2(C)C)C[C@@H]1C (stereo partly drawn) [Example I-73, (2,2-dimethylcyclopropyl)methyl (3S)-4-acetyl-3-methyl-7-(1-(oxetan-3-yl)-1H-pyrazol-4-yl)-3,4-dihydroquinoxaline-1(2H)-carboxylate] | 1000 to 10000 | 50 to 500 |
| CC(=O)N1c2ccc(-c3cnn(C4COC4)c3)cc2N(C(=O)OCC(F)F)C[C@@H]1C [Example I-84, (S)-2,2-difluoroethyl 4-acetyl-3-methyl-7-(1-(oxetan-3-yl)-1H-pyrazol-4-yl)-3,4-dihydroquinoxaline-1(2H)-carboxylate] | 1000 to 10000 | > 500 |
| C[C@H]1CN(c2nc3ccccc3o2)c2cc(-c3cnn(C4CC4)c3)ccc2N1C(=O)C1CC1 [Example I-92, (S)-(4-(benzo[d]oxazol-2-yl)-6-(1-cyclopropyl-1H-pyrazol-4-yl)-2-methyl-3,4-dihydroquinoxalin-1 (2H)-yl)(cyclopropyl)methanone] | 1000 to 10000 | 50 to 500 |
| CC(=O)N1c2ccc(Oc3ccccc3)nc2N(C(=O)C2CC2)C[C@@H]1C [Example I-97, (S)-1-(4-(cyclopropanecarbonyl)-2-methyl-6-phenoxy-3,4-dihydropyrido[2,3-b]pyrazin-1(2H)-yl)ethanone] | > 10000 | > 500 |
